Patent publication US8609639B2, “Stat3 inhibitor having anti-cancer activity and methods” (University of South Florida, priority 2006, dated 2013)
Residues, ends and D or L forms follow the SMILES beside them. *: point of attachment. Cbz = O=C(OCc1ccccc1)*

Key:
[1] = system: Stat3-YFP in NIH3T3/v-Src/Stat3-YFP fibroblasts; assay: Fluorescence and confocal microscopy of Stat3-YFP signal; format: cell-based, mouse; parameters: Stat3-YFP fluorescence signal: dose or concentration left out as unconfirmed; settings: for Stat3-YFP fluorescence signal: S3I-M2001, loss evident from 2-5 h, MG132 alone; for aggregated bodies (aggresomes) of Stat3-YFP: within 5 h of treatment, laser scanning confocal microscopy
Protocol: NIH3T3/vSrc cells were either stably transfected with Stat3-YFP construct (23), or growing in 96-well plates on chamber slides were transiently transfected with the Stat3-YFP plasmid (23) using Lipofectamine 2000 for 24 h according to the manufacturer's protocol (Roche), treated with or without S3I-M2001 for different times, and examined under Nikon Eclipse TE200 fluorescence microscope (Nikon). Images were captured and processed by NIKON NIS element-Basic research software.
Specimens were then washed 5 times with PBS, covered with cover slides with [sequence] mounting medium containing DAPI, and examined immediately under Leica TCS SP5 confocal microscope (Germany) at appropriate wavelengths depending on GFP or YFP. Images were captured and processed using the Leica TCS SP 5 software.

[2] = system: GFP in NIH3T3/v-Src/GFP fibroblasts
Stat3:Stat3 dimer = target: T1, Stat3:Stat3 dimer (Homo sapiens, UniProt P40763); assay: Dissociation-reassociation analysis with EMSA (pooled lysates of activated Stat1 and Stat3); format: biochemical; settings: pooled lysates of activated Stat1 and Stat3, increasing concentration
T1 construct: made in house; host or cells: Sf-9 insect cells (baculovirus; co-infected with Jak1 and c-Src)
T1 sequence (P40763 whole entry): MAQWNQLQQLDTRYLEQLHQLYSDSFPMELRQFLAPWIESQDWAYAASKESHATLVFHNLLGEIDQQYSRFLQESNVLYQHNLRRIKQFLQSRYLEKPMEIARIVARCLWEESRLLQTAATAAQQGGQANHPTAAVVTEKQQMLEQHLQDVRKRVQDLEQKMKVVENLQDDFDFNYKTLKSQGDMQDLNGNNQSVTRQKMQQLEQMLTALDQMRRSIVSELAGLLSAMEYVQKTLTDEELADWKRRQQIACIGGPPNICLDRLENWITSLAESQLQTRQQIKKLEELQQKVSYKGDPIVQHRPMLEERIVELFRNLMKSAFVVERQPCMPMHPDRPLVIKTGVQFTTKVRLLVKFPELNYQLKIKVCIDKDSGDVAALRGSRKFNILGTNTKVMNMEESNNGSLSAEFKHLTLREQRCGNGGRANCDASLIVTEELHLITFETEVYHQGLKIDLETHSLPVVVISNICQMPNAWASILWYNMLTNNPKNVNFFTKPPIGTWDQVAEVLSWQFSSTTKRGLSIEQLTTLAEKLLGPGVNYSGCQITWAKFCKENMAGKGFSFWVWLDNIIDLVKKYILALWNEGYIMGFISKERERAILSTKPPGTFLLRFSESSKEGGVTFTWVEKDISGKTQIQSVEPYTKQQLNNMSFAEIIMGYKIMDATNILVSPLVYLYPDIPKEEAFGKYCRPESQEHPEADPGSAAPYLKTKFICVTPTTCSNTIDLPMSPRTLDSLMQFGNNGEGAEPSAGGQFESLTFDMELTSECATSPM
Excerpt: Infect of Sf-9 cells with Stat1, Stat3, Jak1, and c-Src recombinant baculoviruses and preparation of the cell lysates containing activated Stat1 or Stat3 have been previously described (9, 21).
In the previously reported dissociation-reassociation analysis (9, 10, 20), two independently-prepared cell lysate, one containing only activated Stat3:Stat3 dimer and the other containing only activated Stat1:Stat1 dimer (21), were mixed together and pre-treated with or without increasing concentration of S3I-M2001 and subjected to STAT DNA-binding assay with EMSA analysis.
The dissociation-reassociation analysis with EMSA analysis was performed, as previously done (10, 20).

[3] = system: normal NIH3T3, MCF-10A, MDA-MB-453, HUVEC, HAEC and HL-60 cells; assay: TUNEL and Annexin V apoptosis, cells without aberrant Stat3; format: cell-based, mouse, human; settings: cells that do not contain aberrant Stat3
Protocol: (§1) In some cases, cells were first transfected with the plasmid for the Stat3 SH2 (ST3-SH2) domain or mock-transfected (pcDNA3 empty vector) for 24 h or untransfected prior to treatment with S3I-M2001 for an additional 24-48 h. Cells were then detached and analyzed by Annexin V binding (BD Biosciences, San Diego) according to the manufacturer's protocol and Flow Cytometry to quantify the percent apoptosis.

[4] = system: v-Src-induced Stat3-dependent pLucTKS3 luciferase reporter; assay: Transient transfection luciferase reporter, Stat3-dependent; format: cell-based, mouse; settings: NIH3T3 fibroblasts co-transfected with v-Src
[5] = system: MDA-MB-231 tumor xenografts; assay: Human breast tumor xenografts in athymic nude mice; format: in vivo, mouse
Protocol: Six-week-old female athymic nude mice were purchased from Harlan and maintained in the institutional animal facilities approved by the American Association for Accreditation of Laboratory Animal Care. Athymic nude mice were injected subcutaneously in the left flank area with 5×10^6 human breast cancer MDA-MB-231 cells in […] of PBS. After 5 to 10 days, tumors of a diameter of 3 mm were established. Animals were grouped so that the mean tumor sizes in all groups were nearly identical, given S3I-[…] i.v. at 5, 10 and 20 mg/kg every 2 or every 3 days for 26 days and monitored every 2 or 3 days, and tumor sizes were measured with calipers. Tumor volume was calculated according to the formula V=0.52×a2×b, where a, smallest superficial diameter, b, largest superficial diameter.

[6] = system: constitutively-active Stat3; assay: Constitutive Stat3 Tyr phosphorylation and activation in cells (EMSA, Western blot, immunocytostaining); format: cell-based, mouse, human; settings: NIH3T3/v-Src, MDA-MB-231 and MDA-MB-435 cell lines
Protocol: Nuclear extract preparation from cells and EMSA were carried out as previously described (9-12, 16, 18, 40). Nuclear extract preparations from v-Src-transformed (NIH3T3/v-Src) or EGF-stimulated NIH3T3/hEGFR fibroblasts, or tumor cell lines were subjected to EMSA. The 32P-labeled oligonucleotide probe used was hSIE (high affinity sis-inducible element from the c-fos gene, m67 variant, as reported by Wagner et al. (42), and that binds Stat1 and Stat3. Except where indicated, inhibitor compound was pre-incubated with the nuclear extract for 30 min at room temperature prior to incubation with radiolabeled hSIE probe. Where necessary, cells were stimulated with recombinant human EGF (rhEGF) for 5-15 min prior to preparation of nuclear extracts. Bands corresponding to DNA-binding activities were scanned and quantified for each concentration of compound and plotted as percent of control (vehicle) against concentration of compound, from which the IC50 values were derived, as previously reported (9, 10, 42). […]

[7] = system: pJak1, pSrc and pErk1/2 (MAPKs); assay: Western blot of whole-cell lysates for non-Stat3 signalling proteins; format: cell-based, mouse; settings: NIH3T3/v-Src fibroblasts
Excerpt: (§2) Whole-cell lysates prepared in boiling SDS sample-loading buffer. i.p. from lysates using monoclonal anti-Stat3 antibody (Cell Signaling Technology), and the probing of nitrocellulose membranes with primary antibodies and detection of horseradish peroxidase-conjugated secondary antibodies by enhanced chemiluminescence (Amersham Biosciences) were done, as previously described (13, 17, 19, 21). The probes used were anti-Stat3 (Santa Cruz), anti-pTyr705Stat3 (Cell Signaling Technology), anti-YFP antibodies (Santa Cruz), anti-Bcl-xL, anti-pSrc, anti-Src, anti-pJak1, anti-Jak1, anti-pEr1/2 and anti-Erk1/2, and b-actin (Cell Signaling Technology).

NIH3T3/v-Src [8] = assay: Cell migration assay (Bio-Coat chambers); format: cell-based, mouse; parameters: dose or concentration left out as unconfirmed; settings: S3I-M2001, 24 h
Protocol: (§3) Cell migration experiments were carried out using Bio-Coat migration chambers (Becton Dickinson, Franklin, N.J.) of 24-well companion plates with cell culture inserts containing […] pore size filters, according to the manufacturer's protocol. […] After 24-h incubation (37° C., 5% CO2), the filters were removed and the upper surface was wiped with a cotton-tipped applicator to remove non-migratory cells. Cells that had migrated through the filter pores and attached to bottom surface of the filter were fixed and stained. The membranes were mounted on glass slides and cells from 10 random microscopic fields (×400 magnification) were counted. Cell invasion experiments were performed using same Bio-Coat invasion chambers (Becton Dickenson), as already described, except that here, filters ([…]) were used coated with the basement membrane matrigel. Percent inhibition is calculated as 100−y, where y equals residual number of stained cells in the treated/total number in the control ×100.

[9] = system: MDA-MB-435, MDA-MB-231, Panc-1 cancer cells and NIH3T3/v-Src fibroblasts; assay: WST-1 cell viability assay, cells harbouring constitutively-active Stat3; format: cell-based, human, mouse; settings: WST-1 and trypan blue exclusion/cell counting
Protocol: as §1

MDA-MB-231 [10] = assay: Cell migration assay (Bio-Coat chambers); format: cell-based, human; parameters: dose or concentration left out as unconfirmed; settings: S3I-M2001, 24 h
Protocol: as §3

Panc-1 [11] = assay: Cell migration assay (Bio-Coat chambers); format: cell-based, human; parameters: dose or concentration left out as unconfirmed; settings: S3I-M2001, 24 h
Protocol: as §3

[12] = system: NIH3T3/v-Src, MDA-MB-231 and MDA-MB-435 cells; assay: TUNEL and Annexin V binding/Flow Cytometry apoptosis, cells harbouring aberrant Stat3; format: cell-based, mouse, human; parameters: apoptosis (Annexin V) after transfection with Stat3 SH2 domain: dose or concentration left out as unconfirmed
Protocol: as §1

[13] = target: Stat3 activation over that of Stat1 (Mus musculus, UniProt P42227); assay: rhEGF-induced STAT activation in NIH3T3/hEGFR fibroblasts (EMSA); format: cell-based
Chain of Stat3 activation over that of Stat1 (P42227 whole entry): as the sequence (P40763 whole entry) above, with E760D counted along it
Protocol: (§4) Nuclear extract preparation from cells and EMSA were carried out as previously described (9-12, 16, 18, 40). Nuclear extract preparations from v-Src-transformed (NIH3T3/v-Src) or EGF-stimulated NIH3T3/hEGFR fibroblasts, or tumor cell lines were subjected to EMSA. The 32P-labeled oligonucleotide probe used was hSIE (high affinity sis-inducible element from the c-fos gene, m67 variant, as reported by Wagner et al. (42), and that binds Stat1 and Stat3. Except where indicated, inhibitor compound was pre-incubated with the nuclear extract for 30 min at room temperature prior to incubation with radiolabeled hSIE probe. Where necessary, cells were stimulated with recombinant human EGF (rhEGF) for 5-15 min prior to preparation of nuclear extracts. Bands corresponding to DNA-binding activities were scanned and quantified for each concentration of compound and plotted as percent of control (vehicle) against concentration of compound, from which the IC50 values were derived, as previously reported (9, 10, 42).

Lck SH2-GST = Lck SH2-GST (Homo sapiens, UniProt P06239); assay: Lck-SH2 domain ELISA assay; format: binding; parameters: dose or concentration left out as unconfirmed; settings: S3I-M2001
Chain of Lck SH2-GST (P06239 127-224 limits assumed): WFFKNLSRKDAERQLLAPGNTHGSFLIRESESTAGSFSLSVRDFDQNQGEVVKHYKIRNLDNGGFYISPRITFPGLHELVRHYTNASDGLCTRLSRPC
Protocol: An ELISA assay for the binding of Lck-SH2 domain with its conjugate phosphopeptide, biotinyl-e-Ac-EPQpYEEIEL-OH, was carried out, as previously described (13, 22). Absorbance reading (450 nm) for the peroxidase reaction was determined with an ELISA plate reader.

NIH3T3/v-Src [14] = assay: Matrigel invasion assay; format: cell-based, mouse; parameters: dose or concentration left out as unconfirmed; settings: matrigel-coated filters, 24 h
Protocol: as §3

[15] = target: T2, Stat3 ubiquitination in NIH3T3/v-Src fibroblasts (Mus musculus, UniProt P42227); assay: Immunoblotting for ubiquitin of Stat3 immunoprecipitates; format: cell-based; settings: up to 24 h treatment
T2 construct: endogenous in cells; host or cells: NIH3T3/v-Src
T2 sequence (P42227 whole entry): as the sequence (P40763 whole entry) above, with E760D counted along it
Excerpt: as §2

[16] = system: Bcl-xL expression in NIH3T3/v-Src and MDA-MB-435 cells; assay: Western blot analysis for Bcl-xL; format: cell-based, mouse, human
Excerpt: as §2

Stat3:Stat3 = target: T3, Stat3:Stat3 (Mus musculus, UniProt P42227); assay: STAT DNA-binding assay/EMSA in nuclear extracts (hSIE probe); format: biochemical; settings: from EMSA IC50 values
T3 construct: Nuclear extract preparations from v-Src-transformed (NIH3T3/v-Src) or EGF-stimulated NIH3T3/hEGFR fibroblasts, or tumor cell lines were subjected to EMSA; endogenous in cells; host or cells: NIH3T3/v-Src or EGF-stimulated NIH3T3/hEGFR fibroblasts (nuclear extracts)
T3 sequence (P42227 2-770 limits assumed): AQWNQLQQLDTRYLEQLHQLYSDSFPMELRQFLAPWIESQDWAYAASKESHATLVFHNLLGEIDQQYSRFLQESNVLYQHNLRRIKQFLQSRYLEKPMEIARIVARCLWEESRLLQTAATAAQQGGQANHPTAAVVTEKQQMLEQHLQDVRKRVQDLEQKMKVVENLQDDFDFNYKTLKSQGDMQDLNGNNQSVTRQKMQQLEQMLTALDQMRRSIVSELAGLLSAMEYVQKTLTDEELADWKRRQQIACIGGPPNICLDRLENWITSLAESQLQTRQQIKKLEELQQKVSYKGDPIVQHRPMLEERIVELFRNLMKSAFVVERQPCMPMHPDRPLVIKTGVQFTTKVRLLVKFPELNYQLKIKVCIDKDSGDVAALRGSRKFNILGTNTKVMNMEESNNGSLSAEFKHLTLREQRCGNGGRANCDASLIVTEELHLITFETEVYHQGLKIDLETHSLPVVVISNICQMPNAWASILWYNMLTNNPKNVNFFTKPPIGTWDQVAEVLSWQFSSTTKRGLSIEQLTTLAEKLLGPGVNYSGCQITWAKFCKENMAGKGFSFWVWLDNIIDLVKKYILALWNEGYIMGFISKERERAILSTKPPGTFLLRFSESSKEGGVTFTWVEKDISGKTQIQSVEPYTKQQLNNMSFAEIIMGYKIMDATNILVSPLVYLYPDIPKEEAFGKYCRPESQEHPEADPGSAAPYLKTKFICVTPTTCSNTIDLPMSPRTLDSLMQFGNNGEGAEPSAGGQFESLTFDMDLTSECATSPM
Protocol: as §4

MDA-MB-231 [17] = assay: Matrigel invasion assay; format: cell-based, human; parameters: dose or concentration left out as unconfirmed; settings: matrigel-coated filters, 24 h
Protocol: as §3

Panc-1 [18] = assay: Matrigel invasion assay; format: cell-based, human; parameters: dose or concentration left out as unconfirmed; settings: matrigel-coated filters, 24 h
Protocol: as §3

[19] = system: Stat3 nuclear localization in EGF-stimulated NIH3T3/hEGFR; assay: Immunofluorescence/confocal microscopy of Stat3 nuclear localization; format: cell-based, mouse; parameters: dose or concentration left out as unconfirmed; settings: for 3 h prior to rhEGF stimulation for 10 min
Protocol: NIH3T3/hEGFR cells were grown in multi-cell plates and treated with or without S3I-M2001 for 3 h prior to stimulation by rhEGF (10 ng/ml) for 10 min or NIH3T3/vSrc cells were grown in multi-cell plates or chamber slides and cells were fixed with 4% paraformaldehyde for 15 min. Cells were washed 3 times in PBS, permeabilized with 0.2% Triton X for 5 min, and further washed 3-4 times with PBS. Specimens were then blocked in 5% goat serum for 60 min and incubated with Stat3 (Cell Signaling Technology) or Hook2 (Santa Cruz, Santa Cruz, Calif.) antibody at 1:50 dilution at 4° C. overnight. Subsequently, cells were rinsed 4-5 times in PBS, incubated with Alexa fluor 488 rabbit antibody (Molecular probe, Eugene, Oreg.) for (Stat3 detection) or NL637 goat antibody (R&D Systems, Minneapolis, Minn.) for Hook2 for 1-2 h at room temperature in the dark. Specimens were then washed 5 times with PBS, covered with cover slides with [sequence] mounting medium containing DAPI, and examined immediately under Leica TCS SP5 confocal microscope (Germany) at appropriate wavelengths depending on GFP or YFP. Images were captured and processed using the Leica TCS SP 5 software.

[20] = system: NIH3T3/v-Src and Panc-1 cells; assay: Soft-agar colony formation assay, cells with active Stat3; format: cell-based, mouse, human; settings: treated every three days
Protocol: (§5) Colony formation assays were carried out in six-well dishes and colonies were enumerated as previously described (19). Treatment with S3I-M2001 was initiated 1 day after seeding cells in soft-agar suspension by adding […] of medium with or without compound, and repeated every three days, until large colonies were evident.

NIH3T3/v-Ras = assay: Soft-agar colony formation assay, v-Ras transformed fibroblasts; format: cell-based, mouse; settings: NIH3T3/v-Ras lacking constitutively-active Stat3
Protocol: as §5

Compound: CC(C)C[C@@H](C=O)NC(=O)[C@H](CC(C)C)NC(=O)[C@H](CC(C)C)NC(=O)OCc1ccccc1 [MG132, reference compound] (Cbz-Leu-Leu-Leu-aldehyde)
- Stat3-YFP fluorescence signal [1]: no appreciable effect
- GFP signal change [2]: no evidence of GFP signal change

Compound: N.N.[Cl][Pt][Cl] [Cisplatin, reference compound]
- aggregated bodies (aggresomes) of Stat3-YFP [1]: no such effect

Compound: CCCCCCNC(=O)c1nc(-c2cccc3ccccc23)oc1Cc1ccc(OP(=O)(O)O)cc1 [S3I-M2001]
- Stat3:Stat3 DNA-binding activity in pooled lysates (Stat3:Stat3 dimer): concentration-dependent diminution
- apoptosis (TUNEL, Annexin V) [3]: minimal effect
- Stat3-dependent pLucTKS3 luciferase reporter activity [4]: inhibited
- viability of animals ([5]; highest dose applied, 20 mg kg-1 i.v.): remained viable
- growth of tumors (tumor volume) ([5]; i.v. 5, 10 and 20 mg kg-1 every 2 or 3 days for 26 days): strongly inhibited growth of tumors
- Stat3 activity and pTyr levels in residual tumor tissue ([5]; tumors T1 and T2, 3 days after last 5 mg kg-1 injection, EMSA and Western blot): abrogated Stat3 activity and pTyr levels
- constitutive Stat3 Tyr phosphorylation and activation [6]: inhibited constitutive Stat3 Tyr phosphorylation and activation
- pJak1, pSrc and pErk1/2 levels [7]: not repressed
- inhibition of migration (NIH3T3/v-Src [8]): 76%
- selective loss of viability of cells with constitutively-active Stat3 versus cells lacking it [9]: greater than 2 fold
- inhibition of migration (MDA-MB-231 [10]): 37%
- inhibition of migration (Panc-1 [11]): 21%
- apoptosis (Annexin V) after transfection with Stat3 SH2 domain ([12]; 3T3/v-Src/ST3-SH2 versus mock-transfected or untransfected, 24 h): diminished apoptosis
- apoptosis (TUNEL, Annexin V) ([12]; NIH3T3/v-Src, MDA-MB-231, MDA-MB-435, 48 h (TUNEL)): strong apoptosis
- rhEGF-induced Stat3 activation versus Stat1 [13]: preferentially inhibited
- binding of Lck SH2-GST to phosphopeptide biotinyl-e-Ac-EPQpYEEIEL-OH (Lck SH2-GST): minimal effect
- inhibition of invasion (NIH3T3/v-Src [14]): 28%
- level of Stat3 ubiquitination [15]: strong and time-dependent increase
- Bcl-xL expression [16]: diminished Bcl-xL expression
- Stat3-YFP fluorescence signal [1]: time-dependent decrease
- aggregated bodies (aggresomes) of Stat3-YFP [1]: accompanied by aggregated bodies
- preferential inhibition of Stat3 activity over Stat1 (Stat3:Stat3): 2 fold
- GFP signal change [2]: no evidence of GFP signal change
- inhibition of invasion (MDA-MB-231 [17]): 48%
- inhibition of invasion (Panc-1 [18]): 38%
- EGF-induced nuclear staining of Stat3 [19]: significantly attenuated
- growth in soft-agar [20]: blocked growth in soft-agar
- growth in soft-agar (NIH3T3/v-Ras): no appreciable effects
